Results as given in patent publication US10750743B2, “Pyridazinone herbicides” (E.I. DU PONT DE NEMOURS AND COMPANY, priority 2015, dated 2020).

Columns and labels:
Type in all cases: in vivo
[1] = tested on: barnyardgrass (Echinochloa crus-galli); test: Test A preemergence, directed soil spray, visual injury rating; settings: 0 is no effect, 100 is complete control
Summary of the method: (§1)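 Compounds in a surfactant-containing solvent were applied as a directed soil spray preemergence, or postemergence to plants 2-10 cm tall at the one- to two-leaf stage, in loam-sand blend. After about 10 d in the greenhouse, injury was rated visually against untreated controls on a 0-100 scale (100 = complete control).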

[2] = tested on: foxtail, giant (giant foxtail, Setaria faberii); test: as above; settings: 0 is no effect, 100 is complete control
Summary of the method: as §1

[3] = tested on: kochia (Kochia scoparia); test: as above; settings: 0 is no effect, 100 is complete control
Summary of the method: as §1

[4] = tested on: pigweed (Amaranthus retroflexus); test: as above; settings: 0 is no effect, 100 is complete control
Summary of the method: as §1

[5] = tested on: ragweed (common ragweed, Ambrosia elatior); test: as above; settings: 0 is no effect, 100 is complete control
Summary of the method: as §1

[6] = tested on: ryegrass, It. (Italian ryegrass, Lolium multiflorum); test: as above; settings: 0 is no effect, 100 is complete control
Summary of the method: as §1

[7] = tested on: barnyardgrass (Echinochloa crus-galli); test: Test B flooded paddy test, visual rating; settings: Flood, 250 g ai/ha, applied to paddy water, rated after 13 to 15 d
Summary of the method: (§2)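 Plants grown to the 2-leaf stage. At treatment, pots were flooded to 3 cm above the soil, compound was applied directly to the paddy water, and that depth was held throughout. After 13 to 15 d in the greenhouse, response was rated visually against controls on a 0 (no effect) to 100 (complete control) scale.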

[8] = tested on: ducksalad (Heteranthera limosa); test: Test B flooded paddy test, visual rating; settings: Flood, 250 g ai/ha, applied to paddy water, rated after 13 to 15 d
Summary of the method: as §2

[9] = tested on: rice (Oryza sativa); test: Test B flooded paddy test, visual rating; settings: Flood, 250 g ai/ha, applied to paddy water, rated after 13 to 15 d
Summary of the method: as §2

[10] = tested on: sedge, umbrella (small-flower umbrella sedge, Cyperus difformis); test: Test B flooded paddy test, visual rating; settings: Flood, 250 g ai/ha, applied to paddy water, rated after 13 to 15 d
Summary of the method: as §2

[11] = tested on: barnyardgrass (Echinochloa crus-galli); test: Test A postemergence application, visual injury rating; settings: 0 to 100 scale, 0 no effect, 100 complete control
Summary of the method: as §1

[12] = tested on: blackgrass (Alopecurus myosuroides); test: as above; settings: 0 to 100 scale, 0 no effect, 100 complete control
Summary of the method: as §1

[13] = tested on: corn (Zea mays); test: as above; settings: for Corn plant response rating: 0 to 100 scale, 0 no effect, 100 complete control
Summary of the method: as §1

[14] = tested on: foxtail, giant (giant foxtail, Setaria faberii); test: as above; settings: for Foxtail, Giant plant response rating: 0 to 100 scale, 0 no effect, 100 complete control
Summary of the method: as §1

[15] = tested on: galium (catchweed bedstraw, Galium aparine); test: as above; settings: for Galium plant response rating: 0 to 100 scale, 0 no effect, 100 complete control
Summary of the method: as §1

[16] = tested on: kochia (Kochia scoparia); test: as above; settings: for Kochia plant response rating: 0 to 100 scale, 0 no effect, 100 complete control
Summary of the method: as §1

[17] = tested on: pigweed (Amaranthus retroflexus); test: as above; settings: for Pigweed plant response rating: 0 to 100 scale, 0 no effect, 100 complete control
Summary of the method: as §1

[18] = tested on: ragweed (common ragweed, Ambrosia elatior); test: as above; settings: for Ragweed plant response rating: 0 to 100 scale, 0 no effect, 100 complete control
Summary of the method: as §1

[19] = tested on: ryegrass, It. (Italian ryegrass, Lolium multiflorum); test: as above; settings: for Ryegrass, It. plant response rating: 0 to 100 scale, 0 no effect, 100 complete control
Summary of the method: as §1

[20] = tested on: wheat (Triticum aestivum); test: as above; settings: for Wheat plant response rating: 0 to 100 scale, 0 no effect, 100 complete control
Summary of the method: as §1

[21] = 31 g ai/ha, 0 is no effect, 100 is complete control

Compound | Plant response rating (0 to 100 scale), Barnyardgrass ([1]; 31 g ai/ha) | Plant response rating (0 to 100 scale), Barnyardgrass ([1]; 125 g ai/ha) | Plant response rating (0 to 100 scale), Foxtail, Giant ([2]; 31 g ai/ha) | Plant response rating (0 to 100 scale), Foxtail, Giant ([2]; 125 g ai/ha) | Plant response rating (0 to 100 scale), Kochia ([3]; 31 g ai/ha) | Plant response rating (0 to 100 scale), Kochia ([3]; 125 g ai/ha) | Plant response rating (0 to 100 scale), Pigweed ([4]; 31 g ai/ha) | Plant response rating (0 to 100 scale), Pigweed ([4]; 125 g ai/ha) | Plant response rating (0 to 100 scale), Ragweed ([5]; 31 g ai/ha) | Plant response rating (0 to 100 scale), Ragweed ([5]; 125 g ai/ha) | Plant response rating (0 to 100 scale), Ryegrass, It. ([6]; 31 g ai/ha) | Plant response rating (0 to 100 scale), Ryegrass, It. ([6]; 125 g ai/ha) | Barnyardgrass plant response rating (0 to 100 scale, 0 is no effect, 100 is complete control) [7] | Ducksalad plant response rating (0 to 100 scale, 0 is no effect, 100 is complete control) [8] | Rice plant response rating (0 to 100 scale, 0 is no effect, 100 is complete control) [9] | Sedge, Umbrella plant response rating (0 to 100 scale, 0 is no effect, 100 is complete control) [10] | Barnyardgrass plant response rating ([11]; 31 g ai/ha) | Barnyardgrass plant response rating ([11]; 125 g ai/ha) | Blackgrass plant response rating ([12]; 31 g ai/ha) | Blackgrass plant response rating ([12]; 125 g ai/ha) | further results
Cc1cc2c(-c3c(O)c(C)nn(C)c3=O)ccc(Cl)c2o1 [Compound 45] | 0 | 0 | 0 | 0 | 0 | 0 | 0 | 50 | 0 | 10 | 0 | 30 | 0 | 30 | 0 | 50 | 0 | 0 | 0 | 0 | Corn plant response rating ([13]; 31 g ai/ha): 0; Corn plant response rating ([13]; 125 g ai/ha): 0; Foxtail, Giant plant response rating ([14]; 31 g ai/ha): 0; Foxtail, Giant plant response rating ([14]; 125 g ai/ha): 0; Galium plant response rating ([15]; 31 g ai/ha): 20; Galium plant response rating ([15]; 125 g ai/ha): 70; Kochia plant response rating ([16]; 31 g ai/ha): 0; Kochia plant response rating ([16]; 125 g ai/ha): 0; Pigweed plant response rating ([17]; 31 g ai/ha): 0; Pigweed plant response rating ([17]; 125 g ai/ha): 10; Ragweed plant response rating ([18]; 31 g ai/ha): 0; Ragweed plant response rating ([18]; 125 g ai/ha): 0; Ryegrass, It. plant response rating ([19]; 31 g ai/ha): 20; Ryegrass, It. plant response rating ([19]; 125 g ai/ha): 60; Wheat plant response rating ([20]; 31 g ai/ha): 0; Wheat plant response rating ([20]; 125 g ai/ha): 0
CCC(=O)Oc1c(C)nn(C)c(=O)c1-c1ccc(Cl)c2ccsc12 [Compound 36] | 0 | 0 | 0 | 0 | 0 | 0 | 0 | 90 | 0 | 0 | 20 | 90 | 0 | 0 | 0 | 80 | 0 | 10 | 0 | 0 | Corn plant response rating ([13]; 31 g ai/ha): 0; Corn plant response rating ([13]; 125 g ai/ha): 0; Foxtail, Giant plant response rating ([14]; 31 g ai/ha): 0; Foxtail, Giant plant response rating ([14]; 125 g ai/ha): 0; Galium plant response rating ([15]; 31 g ai/ha): 90; Galium plant response rating ([15]; 125 g ai/ha): 100; Kochia plant response rating ([16]; 31 g ai/ha): 20; Kochia plant response rating ([16]; 125 g ai/ha): 30; Pigweed plant response rating ([17]; 31 g ai/ha): 0; Pigweed plant response rating ([17]; 125 g ai/ha): 30; Ragweed plant response rating ([18]; 31 g ai/ha): 0; Ragweed plant response rating ([18]; 125 g ai/ha): 0; Ryegrass, It. plant response rating ([19]; 31 g ai/ha): 30; Ryegrass, It. plant response rating ([19]; 125 g ai/ha): 80; Wheat plant response rating ([20]; 31 g ai/ha): 0; Wheat plant response rating ([20]; 125 g ai/ha): 0
CC(=O)Oc1c(C)nn(C)c(=O)c1-c1ccc(Cl)c2cc(C)oc12 [Compound 42] | 10 | 60 | 10 | 50 | 0 | 0 | 0 | 40 | 30 | 40 | 60 | 90 | 0 | 80 | 0 | 60 | 10 | 40 | 20 | 50 | Corn plant response rating ([13]; 31 g ai/ha): 0; Corn plant response rating ([13]; 125 g ai/ha): 10; Foxtail, Giant plant response rating ([14]; 31 g ai/ha): 10; Foxtail, Giant plant response rating ([14]; 125 g ai/ha): 30; Galium plant response rating ([15]; 31 g ai/ha): 90; Galium plant response rating ([15]; 125 g ai/ha): 90; Kochia plant response rating ([16]; 31 g ai/ha): 0; Kochia plant response rating ([16]; 125 g ai/ha): 0; Pigweed plant response rating ([17]; 31 g ai/ha): 30; Pigweed plant response rating ([17]; 125 g ai/ha): 50; Ragweed plant response rating ([18]; 31 g ai/ha): 20; Ragweed plant response rating ([18]; 125 g ai/ha): 10; Ryegrass, It. plant response rating ([19]; 31 g ai/ha): 70; Ryegrass, It. plant response rating ([19]; 125 g ai/ha): 90; Wheat plant response rating ([20]; 31 g ai/ha): 0; Wheat plant response rating ([20]; 125 g ai/ha): 0
Cc1nn(C)c(=O)c(-c2ccc(Cl)c3sc(Br)cc23)c1O [Compound 37] | 0 | 0 | 0 | 0 | 0 | 0 | 0 | 0 | 0 | 50 | 0 | 0 | 0 | 0 | 0 | 0 | 0 | 0 | 0 | 0 | Corn plant response rating ([13]; 31 g ai/ha): 0; Corn plant response rating ([13]; 125 g ai/ha): 0; Foxtail, Giant plant response rating ([14]; 31 g ai/ha): 0; Foxtail, Giant plant response rating ([14]; 125 g ai/ha): 0; Galium plant response rating ([15]; 31 g ai/ha): 20; Galium plant response rating ([15]; 125 g ai/ha): 40; Kochia plant response rating ([16]; 31 g ai/ha): 0; Kochia plant response rating ([16]; 125 g ai/ha): 10; Pigweed plant response rating ([17]; 31 g ai/ha): 0; Pigweed plant response rating ([17]; 125 g ai/ha): 0; Ragweed plant response rating ([18]; 31 g ai/ha): 0; Ragweed plant response rating ([18]; 125 g ai/ha): 0; Ryegrass, It. plant response rating ([19]; 31 g ai/ha): 0; Ryegrass, It. plant response rating ([19]; 125 g ai/ha): 0; Wheat plant response rating ([20]; 31 g ai/ha): 0; Wheat plant response rating ([20]; 125 g ai/ha): 0
CC(=O)Oc1c(Cl)nn(C)c(=O)c1-c1nccc2ccccc12 [Compound 66] | 0 | 0 | 0 | 0 | 0 | 0 | 10 | 20 | 0 | 0 | 0 | 50 | 0 | 0 | 0 | 0 | 0 | 10 | 0 | 0 | Plant response rating (0 to 100 scale), Corn [13, 21]: 0; Corn plant response rating ([13]; 125 g ai/ha): 0; Plant response rating (0 to 100 scale), Foxtail, Giant [14, 21]: 0; Foxtail, Giant plant response rating ([14]; 125 g ai/ha): 10; Plant response rating (0 to 100 scale), Galium [15, 21]: 0; Galium plant response rating ([15]; 125 g ai/ha): 50; Plant response rating (0 to 100 scale), Kochia [16, 21]: 0; Kochia plant response rating ([16]; 125 g ai/ha): 40; Plant response rating (0 to 100 scale), Pigweed [17, 21]: 40; Pigweed plant response rating ([17]; 125 g ai/ha): 50; Plant response rating (0 to 100 scale), Ragweed [18, 21]: 10; Ragweed plant response rating ([18]; 125 g ai/ha): 30; Plant response rating (0 to 100 scale), Ryegrass, It. [19, 21]: 20; Ryegrass, It. plant response rating ([19]; 125 g ai/ha): 40; Plant response rating (0 to 100 scale), Wheat [20, 21]: 0; Wheat plant response rating ([20]; 125 g ai/ha): 0
